Measured values taken from US9504756B2, “Self-stabilizing linker conjugates” (priority 2012, dated 2016).

Assay: Thiosuccinimide ring hydrolysis of IgG1 conjugates monitored by electrospray mass spectrometry
Format: physicochemical
Conditions: conjugated to reduced human IgG1; pH 7.4, 22° C.
From the text: The hydrolysis reaction rates of maleimido drug linkers following conjugation to antibody cysteines can be determined by mass spectrometry, as the hydrolyzed product has a molecular weight 18 daltons greater than the unhydrolyzed conjugate. Reduction of the interchain disulfides of a human IgG1 creates a single reduced cysteine on the light chain and three reduced cysteines on the heavy chain. The self-stabilizing maleimide drug-linker can then be conjugated to the reduced antibody at pH 7.4 and 22° C. and introduced to a high-resolution electrospray mass spectrometer via a reversed-phase HPLC column which separates the conjugated light and heavy chains. The masses of the conjugated light and heavy chains can thus be measured, and the peak intensities determined by standard mass spectrometry data processing software (e.g., MassLynx). By performing a series of injections over time, the disappearance of the peak corresponding to the mass of the original, unhydrolyzed conjugate and the appearance of the peak corresponding to the mass of the hydrolyzed conjugate can be monitored, the intensities of the peaks determined, and the percentage of hydrolyzed conjugate calculated at each timepoint. By plotting the hydrolysis percentage versus time, a curve is generated (e.g., using PRISM) which can be fit to a standard equation for exponential phenomena which includes a parameter for t1/2. […]

Substance: diaminopropionyl maleimide
- time for hydrolysis reaction approaching 100% completion: about 2 hours
